The source of these data is US5847092A (Zambon Group S.p.A., priority 1994, dated 1998).

Holding throughout (assay): In vitro antibacterial activity, MIC, broth microdilution
Common to all, as to format: cell-based
In general terms: Broth dilution looks for growth in wells or tubes with falling amounts of substance.

The test system of assay [1] is Klebsiella pneumoniae ZC 2. The note with it: Klebsiella pneumoniae, ZC2; K. pneumoniae ZC 2; MHB; 37° C., 18 hours; read-out: minimum inhibiting concentration MIC. On the procedure: (§1) a) In vitro antibacterial activity The determination of the minimum inhibiting concentrations (MIC), with respect to Gram-positive and Gram-negative bacteria was carried out through the micromethod of gradual broth dilution in double series [National Committee for Clinical Laboratory Standards, 1990; Methods for dilution antimicrobial susceptibility tests for bacteria that grow aerobically; Approved standards […], Villanova, Pa.], by using Mueller Hinton Broth (MHB) as a culture medium. In the case of […] bacteria, horse serum at 5% (Streptococcus pneumoniae and Streptococcus pyogenes) was added to the medium. Roxithromycin and Clarithromycin [The Merck Index, XI Ed., No. 8253 and 2340, respectively] were used as reference macrolides. MIC, expressed as (μg/ml), were determined after incubation of the microplates at 37° C. for 18 hours, evaluating the lowest antibiotic concentration enabling the inhibition of bacterial development.

The subject of assay [2] is Streptococcus pneumoniae BS 4. The note with it: Streptococcus pneumoniae, BS4; S. pneumoniae BS 4; MHB + 5% horse serum; 37° C., 18 hours; read-out: minimum inhibiting concentration MIC. As for the experimental part: as §1
For assay [3], the system named is Streptococcus pyogenes C 203. To be noted: Streptococcus pyogenes, C203; S. pyogenes C 203; MHB + 5% horse serum; 37° C., 18 hours; read-out: minimum inhibiting concentration MIC. On the procedure:
as §1

The test system of assay [4] is Streptococcus pneumoniae BS 3. To be noted: Streptococcus pneumoniae, BS3; S. pneumoniae BS 3; MHB + 5% horse serum; 37° C., 18 hours; read-out: minimum inhibiting concentration MIC. As for the experimental part:
as §1

Assay [5] deals with Streptococcus pyogenes A 26. The note with it: Streptococcus pyogenes, A26; S. pyogenes A 26; MHB + 5% horse serum; 37° C., 18 hours; read-out: minimum inhibiting concentration MIC. On the procedure: as §1
Assay [6] concerns Staphylococcus aureus PV 14. The note with it: Staphylococcus aureus, PV14; S. aureus PV 14; MHB; 37° C., 18 hours; read-out: minimum inhibiting concentration MIC. As for the experimental part: as §1
Assay [7] deals with Enterococcus faecalis ATCC 29212. The note with it: Enterococcus faecalis, ATCC29212; E. faecalis ATCC 29212; MHB; 37° C., 18 hours; read-out: minimum inhibiting concentration MIC. On the procedure:
as §1

Assay [8] relates to Escherichia coli ATCC 25922. To be noted: Escherichia coli, ATCC25922; E. coli ATCC 25922; MHB; 37° C., 18 hours; read-out: minimum inhibiting concentration MIC. On the procedure:
as §1

The structures appear in SMILES notation. Converted amounts (≈) assume the structure as drawn.

Take `CC[C@H]1OC(=O)[C@H](C)[C@@H](O[C@H]2C[C@@](C)(OC)[C@@H](O)[C@H](C)O2)[C@H](C)[C@@H](O[C@@H]2O[C@H](C)C[C@H](N(C)C)[C@H]2O)[C@](C)(O)C[C@@H](C)/C(=N\OCCNCCNCc2ccccc2)[C@H](C)[C@@H](O)[C@]1(C)O` [Compound 5, Erythromycin A (E)-9-[0-[2-[2-(phenylmethylamino)ethylamino]ethyl]oxime]]: the MIC in assay [1] was 32 µg/mL (≈ 34.6 µM); in assay [2], 0.0312 µg/mL; in assay [3], 0.0156 µg/mL; in assay [4], 0.0156 µg/mL; in assay [5], 0.0312 µg/mL; in assay [6], 1 µg/mL (≈ 1.08 µM). Moreover, the MIC in assay [7] came to 4 µg/mL (≈ 4.32 µM); in assay [8] it was 8 µg/mL (≈ 8.65 µM).
Consider `CC[C@H]1OC(=O)[C@H](C)[C@@H](O[C@H]2C[C@@](C)(OC)[C@@H](O)[C@H](C)O2)[C@H](C)[C@@H](O[C@@H]2O[C@H](C)C[C@H](N(C)C)[C@H]2O)[C@](C)(O)C[C@@H](C)/C(=N\OCCCCCCNCCCCCCNCc2ccccc2)[C@H](C)[C@@H](O)[C@]1(C)O` [Compound 6, Erythromycin A (E)-9-[0-[6-[6-(phenylmethylamino)hexylamino]hexyl]oxime]], for which the MIC came to 16 µg/mL (≈ 15.4 µM) in assay [1]; 0.0312 µg/mL in assay [2]; 0.0156 µg/mL in assay [3]; 0.0156 µg/mL in assay [4]; 0.0312 µg/mL in assay [5]; 0.25 µg/mL (≈ 0.241 µM) in assay [6]. Also, the figures for the MIC in assay [7] and in assay [8] were 8 µg/mL (≈ 7.71 µM) and 4 µg/mL (≈ 3.86 µM), respectively.
Take `CC[C@H]1OC(=O)[C@H](C)[C@@H](O[C@H]2C[C@@](C)(OC)[C@@H](O)[C@H](C)O2)[C@H](C)[C@@H](O[C@@H]2O[C@H](C)C[C@H](N(C)C)[C@H]2O)[C@](C)(O)C[C@@H](C)/C(=N\OCCCCCCNCCCNCc2ccccc2)[C@H](C)[C@@H](O)[C@]1(C)O` [Compound 7, Erythromycin A (E)-9-[0-[6-[3-(phenylmethylamino)propylamino]hexyl]oxime]]: the MIC in assay [1] turned out to be 16 µg/mL (≈ 16.1 µM); in assay [2], 0.0625 µg/mL; in assay [3] it was 0.0156 µg/mL; in assay [4], 0.0625 µg/mL; in assay [5] it was 0.0312 µg/mL; in assay [6], 0.5 µg/mL (≈ 0.502 µM). In addition, the MIC in assay [7] and in assay [8] was 4 µg/mL (≈ 4.02 µM) in each case.
Regarding `CC[C@H]1OC(=O)[C@H](C)[C@@H](O[C@H]2C[C@@](C)(OC)[C@@H](O)[C@H](C)O2)[C@H](C)[C@@H](O[C@@H]2O[C@H](C)C[C@H](N(C)C)[C@H]2O)[C@](C)(O)C[C@@H](C)/C(=N\OCCCCCCNCCCCCNCc2ccccc2)[C@H](C)[C@@H](O)[C@]1(C)O` [Compound 8, Erythromycin A (E)-9-[0-[6-[5-(phenylmethylamino)pentylamino]hexyl]oxime]], the MIC in assay [1] turned out to be 16 µg/mL (≈ 15.6 µM); in assay [2], 0.5 µg/mL; in assay [3], 0.0078 µg/mL; in assay [4] it was 0.25 µg/mL; in assay [5], 0.0312 µg/mL; in assay [6], 0.5 µg/mL (≈ 0.489 µM). The figures for the MIC in assay [7] and in assay [8] were 8 µg/mL (≈ 7.82 µM) and 4 µg/mL (≈ 3.91 µM), respectively.
Turning to `CC[C@H]1OC(=O)[C@H](C)[C@@H](O[C@H]2C[C@@](C)(OC)[C@@H](O)[C@H](C)O2)[C@H](C)[C@@H](O[C@@H]2O[C@H](C)C[C@H](N(C)C)[C@H]2O)[C@](C)(O)C[C@@H](C)/C(=N\OCCNCCCCCCCCNCc2ccccc2)[C@H](C)[C@@H](O)[C@]1(C)O` [Compound 9, Erythromycin A (E)-9-[0-[2-[8-(phenylmethyiamino)octylamino]ethyl]oxime]], the MIC in assay [1] is 16 µg/mL (≈ 15.9 µM); in assay [2], 0.0078 µg/mL; in assay [3] it was 0.0039 µg/mL; in assay [4], 0.0078 µg/mL; in assay [5], 0.0078 µg/mL; in assay [6], 0.25 µg/mL (≈ 0.248 µM). Moreover, the MIC in assay [7] and in assay [8] was 4 µg/mL (≈ 3.96 µM) throughout.
Regarding `CC[C@H]1OC(=O)[C@H](C)[C@@H](O[C@H]2C[C@@](C)(OC)[C@@H](O)[C@H](C)O2)[C@H](C)[C@@H](O[C@@H]2O[C@H](C)C[C@H](N(C)C)[C@H]2O)[C@](C)(O)C[C@@H](C)/C(=N\OCCCCCNCCCCCCNCc2ccccc2)[C@H](C)[C@@H](O)[C@]1(C)O` [Compound 11, Erythromycin A (E)-9-[0-[5-[6-(phenylmethylamino)hexylamino]pentyl]oxime]], the MIC in assay [1] was determined as 16 µg/mL (≈ 15.6 µM); in assay [2] it was 0.5 µg/mL; in assay [3] it was 0.0312 µg/mL; in assay [4], 0.25 µg/mL; in assay [5], 0.0625 µg/mL; in assay [6], 0.5 µg/mL (≈ 0.489 µM). Also, the values for the MIC in assay [7] and in assay [8] were 16 µg/mL (≈ 15.6 µM) and 8 µg/mL (≈ 7.82 µM), respectively.
Take `CC[C@H]1OC(=O)[C@H](C)[C@@H](O[C@H]2C[C@@](C)(OC)[C@@H](O)[C@H](C)O2)[C@H](C)[C@@H](O[C@@H]2O[C@H](C)C[C@H](N(C)C)[C@H]2O)[C@](C)(O)C[C@@H](C)/C(=N\OCCCNCCCCCCNCc2ccccc2)[C@H](C)[C@@H](O)[C@]1(C)O` [Compound 12, Erythromycin A (E)-9-[0-[3-[6-(phenylmethylamino)hexylamino]propyl]oxime]]: the MIC in assay [1] was 32 µg/mL (≈ 32.1 µM); in assay [2] it was 0.5 µg/mL; in assay [3] it was 0.0312 µg/mL; in assay [4], 0.25 µg/mL; in assay [5], 0.0625 µg/mL; in assay [6] it was 0.25 µg/mL (≈ 0.251 µM). The MIC turned out to be 16 µg/mL (≈ 16.1 µM) in assay [7] and 8 µg/mL (≈ 8.04 µM) in assay [8].
`CC[C@H]1OC(=O)[C@H](C)[C@@H](O[C@H]2C[C@@](C)(OC)[C@@H](O)[C@H](C)O2)[C@H](C)[C@@H](O[C@@H]2O[C@H](C)C[C@H](N(C)C)[C@H]2O)[C@](C)(O)C[C@@H](C)/C(=N\OCCNCCCCCCNCc2ccccc2O)[C@H](C)[C@@H](O)[C@]1(C)O` [Compound 24, Erythromycin A (E)-9-[0-[2-[6-[(2-hydroxyphenyl)methylamino]hexylamino]ethyl]oxime]]: the MIC was 8 µg/mL (≈ 8.02 µM) in assay [1]; 0.0156 µg/mL in assay [2]; 0.0039 µg/mL in assay [3]; 0.0078 µg/mL in assay [4]; 0.0156 µg/mL in assay [5]; 0.25 µg/mL (≈ 0.251 µM) in assay [6]. In addition, the MIC in assay [7] and in assay [8] was 4 µg/mL (≈ 4.01 µM) in each case.
Take `CC[C@H]1OC(=O)[C@H](C)[C@@H](O[C@H]2C[C@@](C)(OC)[C@@H](O)[C@H](C)O2)[C@H](C)[C@@H](O[C@@H]2O[C@H](C)C[C@H](N(C)C)[C@H]2O)[C@](C)(O)C[C@@H](C)/C(=N\OCCNCCCCCCNCc2cccc(O)c2)[C@H](C)[C@@H](O)[C@]1(C)O` [Compound 25, Erythromycin A (E)-9-[0-[2-[6-[(3-hydroxyphenyl)methylamino]hexylamino]ethyl]oxime]]: the MIC worked out at 16 µg/mL (≈ 16 µM) in assay [1]; 0.25 µg/mL in assay [2]; 0.0312 µg/mL in assay [3]; 0.25 µg/mL in assay [4]; 0.125 µg/mL in assay [5]; 0.125 µg/mL (≈ 0.125 µM) in assay [6]. The MIC in assay [7] and in assay [8] was 8 µg/mL (≈ 8.02 µM) throughout.
With `CC[C@H]1OC(=O)[C@H](C)[C@@H](O[C@H]2C[C@@](C)(OC)[C@@H](O)[C@H](C)O2)[C@H](C)[C@@H](O[C@@H]2O[C@H](C)C[C@H](N(C)C)[C@H]2O)[C@](C)(O)C[C@@H](C)/C(=N\OCCNCCCCCCNCc2ccc(O)cc2)[C@H](C)[C@@H](O)[C@]1(C)O` [Compound 28, Erythromycin A (E)-9-[0-[2-[6-[(4-hydroxyphenyl)methylamino]hexylamino]ethyl]oxime]], the MIC in assay [1] is 32 µg/mL (≈ 32.1 µM); in assay [2], 0.25 µg/mL; in assay [3], 0.125 µg/mL; in assay [4], 0.25 µg/mL; in assay [5], 0.25 µg/mL; in assay [6], 0.125 µg/mL (≈ 0.125 µM). The MIC in assay [7] and in assay [8] was 16 µg/mL (≈ 16 µM) throughout.
As to `CC[C@H]1OC(=O)[C@H](C)[C@@H](O[C@H]2C[C@@](C)(OC)[C@@H](O)[C@H](C)O2)[C@H](C)[C@@H](O[C@@H]2O[C@H](C)C[C@H](N(C)C)[C@H]2O)[C@](C)(O)C[C@@H](C)/C(=N\OCCNCCCCCCNCc2ccco2)[C@H](C)[C@@H](O)[C@]1(C)O` [Compound 31], the MIC in assay [1] came out at 16 µg/mL (≈ 16.5 µM); in assay [2], 0.0078 µg/mL; in assay [3], 0.0039 µg/mL; in assay [4] it was 0.0078 µg/mL; in assay [5] it was 0.0078 µg/mL; in assay [6] it was 0.5 µg/mL (≈ 0.515 µM). Moreover, the MIC in assay [7] and in assay [8] was 4 µg/mL (≈ 4.12 µM) throughout.
